Patent US9278950B2, “Bicyclic aromatic carboxamide compounds useful as Pim kinase inhibitors” (Incyte Corporation, priority 2013, dated 2016)

What was measured:
Type in all cases: biochemical
[1] = target: T1, Pim2 (Homo sapiens, UniProt Q9P1W9); assay: Pim-2 kinase assay (Pim enzyme assays, Example A); conditions: 1 mM ATP; read-out: Pim2 IC50
T1 construct: purchased Invitrogen PV3649
Procedure: Pim-2 kinase assay—20 μL reactions were run in white 384 well polystyrene plates dotted with 0.8 μL compound/DMSO in the assay buffer (50 mM Tris, pH 7.5, 0.01% Tween-20, 5 mM mgCl2, 0.01% BSA, 5 mM DTT), containing 0.05 μM Fluorescein-labeled CREBtide peptide substrate (Invitrogen PV3508), 1 mM ATP, and 1 nM enzyme (Invitrogen PV3649) for 2 h at 25° C. Reactions were stopped by addition of 10 μL TR-FRET Dilution Buffer (Invitrogen PV3574) with 30 mM EDTA and 1.5 nM LanthaScreen Tb-CREB pSer133 antibody (Invitrogen PV3566). After 30 min. incubation at room temperature, plates were read on a PHERAstar FS plate reader (BMG Labtech).

[2] = target: T2, Pim-1 (Homo sapiens, UniProt P11309); assay: Pim-1 kinase assay (Pim enzyme assays, Example A); conditions: 1 mM ATP; read-out: Pim1 IC50
T2 construct: purchased Invitrogen PV3503
T2 sequence (P11309 whole entry): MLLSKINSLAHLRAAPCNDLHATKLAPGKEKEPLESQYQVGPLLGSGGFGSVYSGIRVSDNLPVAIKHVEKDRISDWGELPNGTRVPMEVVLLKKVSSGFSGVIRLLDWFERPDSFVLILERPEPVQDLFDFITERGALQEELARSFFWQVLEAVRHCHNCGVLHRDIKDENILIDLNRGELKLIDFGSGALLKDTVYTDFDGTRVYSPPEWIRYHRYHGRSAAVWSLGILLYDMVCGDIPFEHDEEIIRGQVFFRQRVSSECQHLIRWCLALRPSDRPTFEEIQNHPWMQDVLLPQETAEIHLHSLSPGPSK
Procedure: (§1) Pim-1 and Pim-3 kinase assays-20 μL reactions were run in white 384 well polystyrene plates dotted with 0.8 μL compound/DMSO in the assay buffer (50 mM Tris, pH 7.5, 0.01% Tween-20, 5 mM mgCl2, 0.01% BSA, 5 mM DTT), containing 0.05 μM Biotin-labeled BAD peptide substrate (AnaSpec 62269), 1 mM ATP, and […] (Pim-1, Invitrogen PV3503) or […] (Pim-3, Millipore 14-738) enzyme for 1 h at 25° C. Reactions were stopped by addition of 10 μL STOP Buffer (150 mM Tris, pH=7.5, 150 mM NaCl, 75 mM EDTA, 0.01% Tween-20, 0.3% BSA,) supplemented with Phospho-Bad (Ser 12) Antibody (Cell Signaling 9291) diluted 666-fold, and Streptavidin donor beads (PerkinElmer 6760002) along with Protein-A acceptor beads (PerkinElmer 6760137) at 15 μg/mL each. Supplementation of the STOP buffer with beads and stopping the reactions were done under reduced light. Prior to the stopping reactions STOP buffer with beads was preincubated for 1 h in the dark at room temperature. After stopping the reactions, plates were incubated for 1 h in the dark at room temperature before reading on a PHERAstar FS plate reader (BMG Labtech) under reduced light.

[3] = target: T3, Pim-3 (Homo sapiens, UniProt Q86V86); assay: Pim-3 kinase assay (Pim enzyme assays, Example A); conditions: 1 mM ATP; read-out: Pim3 IC50
T3 construct: purchased Millipore 14-738
Procedure: as §1

T1 sequence (Q9P1W9 whole entry): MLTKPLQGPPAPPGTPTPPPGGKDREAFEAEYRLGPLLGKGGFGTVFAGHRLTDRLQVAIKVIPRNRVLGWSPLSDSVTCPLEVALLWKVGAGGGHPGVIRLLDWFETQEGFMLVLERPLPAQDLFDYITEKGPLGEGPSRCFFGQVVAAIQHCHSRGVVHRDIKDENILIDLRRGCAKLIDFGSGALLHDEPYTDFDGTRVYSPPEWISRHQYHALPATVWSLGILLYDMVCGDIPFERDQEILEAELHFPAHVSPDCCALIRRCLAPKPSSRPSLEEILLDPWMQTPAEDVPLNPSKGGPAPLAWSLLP

SMILES | IC50 [1] [nM] | IC50 [2] [nM] | IC50 [3] [nM]
CCc1ccc2cc(N)c(C(=O)Nc3cnccc3N3C[C@@H](N)[C@@H](NC(=O)OC)[C@@H](C)C3)nc2c1 [Example 58, Methyl [(3R,4S,5S)-3-amino-1-(3-{[(3-amino-7-ethylquinolin-2-yl)carbonyl]amino}pyridin-4-yl)-5-methylpiperidin-4-yl]carbamate] | 100 to 1000 | ≤ 100 | ≤ 100
CCOc1ccc2cc(N)c(C(=O)Nc3cnccc3N3C[C@@H](N)[C@H](O)[C@@H](C)C3)nc2n1 [Example 26, 3-Amino-N-{4-[(3R,4R,5S)-3-amino-4-hydroxy-5-methylpiperidin-1-yl]pyridin-3-yl}-7-ethoxy-1,8-naphthyridine-2-carboxamide] |  | ≤ 100 | ≤ 100
CCc1cc2nc(C(=O)Nc3cnccc3N3CCC[C@H](N)C3)c(N)cc2cc1F [Example 14, 3-Amino-N-{4-[(3S)-3-aminopiperidin-1-yl]pyridin-3-yl}-7-ethyl-6-fluoroquinoline-2-carboxamide] | 100 to 1000 | ≤ 100 | ≤ 100
CCc1ccc2cc(N)c(C(=O)Nc3cnc(OC)cc3N3CCC[C@H](N)C3)nc2c1 [Example 31, 3-Amino-N-{4-[(3S)-3-aminopiperidin-1-yl]-6-methoxypyridin-3-yl}-7-ethylquinoline-2-carboxamide] | > 2000 | > 40 | ≤ 100
CCc1ccc2cc(N)c(C(=O)Nc3cnc4c(c3N3CCC[C@H](N)C3)CCC4O)nc2c1 (single isomer, unassigned) [22 isomer 2] | > 2000 | ≤ 100 | ≤ 100
Nc1cc2ccc(C(O)c3ccccc3)cc2nc1C(=O)Nc1cnccc1N1CCC[C@H](N)C1 (stereo partly drawn) [Example 17, 3-Amino-N-{4-[(3S)-3-aminopiperidin-1-yl]pyridin-3-yl}-7-[hydroxy(phenyl)methyl]quinoline-2-carboxamide] | > 2000 | ≤ 100 | ≤ 100
CCc1ccc2cc(N)c(C(=O)Nc3cncc(C)c3N3C[C@@H](N)[C@H](O)[C@@H](C)C3)nc2c1 [Example 28, 3-Amino-N-{4-[(3R,4R,5S)-3-amino-4-hydroxy-5-methylpiperidin-1-yl]-5-methylpyridin-3-yl}-7-ethylquinoline-2-carboxamide] | ≤ 100 | ≤ 100 | ≤ 100
N#Cc1ccccc1-c1ccc2cc(N)c(C(=O)Nc3cnccc3N3CCC[C@H](N)C3)nc2c1 [Example 5, 3-Amino-N-{4-[(3S)-3-aminopiperidin-1-yl]pyridin-3-yl}-7-(2-cyanophenyl)quinoline-2-carboxamide] | ≤ 100 | ≤ 100 | ≤ 100
CCOc1ccc2cc(N)c(C(=O)Nc3cnccc3N3CCC[C@H](N)C3)nc2n1 [Example 25, 3-Amino-N-{4-[(3S)-3-aminopiperidin-1-yl]pyridin-3-yl}-7-ethoxy-1,8-naphthyridine-2-carboxamide] |  | ≤ 100 | ≤ 100
CCc1cc2nc(C(=O)Nc3cnccc3N3CCC[C@H](N)C3)c(N)cc2cn1 [Example 27, 3-Amino-N-{4-[(3S)-3-aminopiperidin-1-yl]pyridin-3-yl}-7-ethyl-1,6-naphthyridine-2-carboxamide] |  | ≤ 100 | ≤ 100

Second part, the compound after the results:

IC50 [1] [nM] | IC50 [2] [nM] | IC50 [3] [nM] | SMILES
100 to 1000 | ≤ 100 | ≤ 100 | N#CCc1ccc2cc(N)c(C(=O)Nc3cnccc3N3CCC[C@H](N)C3)nc2c1 [Example 13, 3-Amino-N-{4-[(3S)-3-aminopiperidin-1-yl]pyridin-3-yl}-7-(cyanomethyl)quinoline-2-carboxamide]
≤ 100 | ≤ 100 | ≤ 100 | CC(C)c1ccc2cc(N)c(C(=O)Nc3cnccc3N3CCC[C@H](N)C3)nc2c1 [Example 9, 3-Amino-N-{4-[(3S)-3-aminopiperidin-1-yl]pyridin-3-yl}-7-isopropylquinoline-2-carboxamide]
100 to 1000 | ≤ 100 | ≤ 100 | C[C@H]1CN(c2ccncc2NC(=O)c2nc3cc(N4CCCCC4=O)ccc3cc2N)C[C@@H](N)[C@@H]1O [Example 49, 3-Amino-N-{4-[(3R,4R,5S)-3-amino-4-hydroxy-5-methylpiperidin-1-yl]pyridin-3-yl}-7-(2-oxopiperidin-1-yl)quinoline-2-carboxamide]
≤ 100 | ≤ 100 | ≤ 100 | C[C@@H]1C[C@H](N)CN(c2ccncc2NC(=O)c2nc3cc(N4CCN(C)CC4)ccc3cc2N)C1 [Example 36, 3-Amino-N-{4-[(3S,5R)-3-amino-5-methylpiperidin-1-yl]pyridin-3-yl}-7-(4-methylpiperazin-1-yl)quinoline-2-carboxamide]
100 to 1000 | ≤ 100 | ≤ 100 | COC(=O)N[C@@H]1[C@H](N)CN(c2ccncc2NC(=O)c2nc3cc(C4CCOCC4)ccc3cc2N)C[C@@H]1C [Example 61, Methyl {(3R,4S,5S)-3-amino-1-[3-({[3-amino-7-(tetrahydro-2H-pyran-4-yl)quinolin-2-yl]carbonyl}amino)pyridin-4-yl]-5-methylpiperidin-4-yl}carbamate]
≤ 100 | ≤ 100 | ≤ 100 | C[C@H]1CN(c2ccncc2NC(=O)c2nc3cc(N4CCN(C)CC4)ccc3cc2N)C[C@@H](N)[C@@H]1O [Example 38, 3-Amino-N-{4-[(3R,4R,5S)-3-amino-4-hydroxy-5-methylpiperidin-1-yl]pyridin-3-yl}-7-(4-methylpiperazin-1-yl)quinoline-2-carboxamide]
≤ 100 | ≤ 100 | ≤ 100 | C[C@@H]1C[C@H](N)CN(c2ccncc2NC(=O)c2nc3cc(C4CCN(C)CC4)ccc3cc2N)C1 [Example 43, 3-Amino-N-{4-[(3S,5R)-3-amino-5-methylpiperidin-1-yl]pyridin-3-yl}-7-(1-methylpiperidin-4-yl)quinoline-2-carboxamide]
≤ 100 | ≤ 100 | ≤ 100 | C[C@@H]1C[C@H](N)CN(c2ccncc2NC(=O)c2nc3cc(N4CCOCC4)ccc3cc2N)C1 [Example 34, 3-Amino-N-{4-[(3S,5R)-3-amino-5-methylpiperidin-1-yl]pyridin-3-yl}-7-morpholin-4-ylquinoline-2-carboxamide]
1000 to 10000 | ≤ 100 | ≤ 100 | Cn1nccc1-c1ccc2cc(N)c(C(=O)Nc3cnccc3N3CCC[C@H](N)C3)nc2c1 [Example 4, 3-Amino-N-{4-[(3S)-3-aminopiperidin-1-yl]pyridin-3-yl}-7-(1-methyl-1H-pyrazol-5-yl)quinoline-2-carboxamide]
100 to 1000 | ≤ 100 | ≤ 100 | C[C@@H]1C[C@H](N)CN(c2ccncc2NC(=O)c2nc3cc(N4CCOCC4=O)ccc3cc2N)C1 [Example 50, 3-Amino-N-{4-[(3S,5R)-3-amino-5-methylpiperidin-1-yl]pyridin-3-yl}-7-(3-oxomorpholin-4-yl)quinoline-2-carboxamide]
100 to 1000 | ≤ 100 | ≤ 100 | CC(F)c1ccc2cc(N)c(C(=O)Nc3cnccc3N3CCC[C@H](N)C3)nc2c1 (stereo partly drawn) [Example 18, 3-Amino-N-{4-[(3S)-3-aminopiperidin-1-yl]pyridin-3-yl}-7-(1-fluoroethyl)quinoline-2-carboxamide]
≤ 100 | ≤ 100 | ≤ 100 | C[C@@H]1C[C@H](N)CN(c2ccncc2NC(=O)c2nc3cc(C4CCOCC4)ccc3cc2N)C1 [Example 40, 3-Amino-N-{4-[(3S,5R)-3-amino-5-methylpiperidin-1-yl]pyridin-3-yl}-7-(tetrahydro-2H-pyran-4-yl)quinoline-2-carboxamide]
100 to 1000 | ≤ 100 | ≤ 100 | Nc1cc2ccccc2nc1C(=O)Nc1cnccc1N1CCC[C@H](N)C1 [Example 11, 3-Amino-N-{4-[(3S)-3-aminopiperidin-1-yl]pyridin-3-yl}quinoline-2-carboxamide]
≤ 100 | ≤ 100 | ≤ 100 | C[C@H]1CN(c2ccncc2NC(=O)c2nc3cc(N4CCN(C)C(=O)C4)ccc3cc2N)C[C@@H](N)[C@@H]1O [Example 48, 3-Amino-N-{4-[(3R,4R,5S)-3-amino-4-hydroxy-5-methylpiperidin-1-yl]pyridin-3-yl}-7-(4-methyl-3-oxopiperazin-1-yl)quinoline-2-carboxamide]
